Structures can show the parent of a compound that is named as a salt.
How the values were obtained:
Format in all cases: cell-based
M. catarrhalis = experiment: In vitro MIC, agar dilution; conditions: Moraxella catarrhalis
C. perfringens = experiment: microbe, parasite or virus in culture; conditions: Clostridium perfringens
M. avium = experiment: In vitro MIC, agar dilution; conditions: Mycobacterium avium
S. pneumoniae (PenS) = experiment: In vitro MIC, agar dilution; conditions: Streptococcus pneumoniae
H. influenzae = experiment: In vitro MIC, agar dilution; conditions: Haemophilus influenzae, H. influenzae, 18 isolates
Legionella spp. = experiment: microbe, parasite or virus in culture; conditions: Legionella
B. fragilis = experiment: In vitro MIC, agar dilution; conditions: Bacteroides fragilis
Providencia spp. = experiment: In vitro MIC, agar dilution
E. faecium (CiproS) = experiment: In vitro MIC, agar dilution; conditions: Enterococcus faecium
P. mirabilis = experiment: In vitro MIC, agar dilution; conditions: Proteus mirabilis
Salmonella spp. = experiment: In vitro MIC, agar dilution; conditions: 23 isolates
Procedure, shortened: (§1)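 MIC, the lowest compound level without growth versus a drug-free BHI control plate, with faint haze or scattered colonies scored as no growth. About 10^4 CFU was replicator-spotted from 1:100 dilutions, or 1:10 for slow-growing strains, and plates were read after ~20–24 h at 35–37 °C.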

E. coli = experiment: In vitro MIC, agar dilution; conditions: Escherichia coli, 25 isolates
Procedure, shortened: as §1

E. faecium (VanS) = experiment: In vitro MIC, agar dilution; conditions: Enterococcus faecium
S. aureus (CiproR) = experiment: In vitro MIC, agar dilution; conditions: Staphylococcus aureus
E. faecalis (VanS) = experiment: In vitro MIC, agar dilution; conditions: Enterococcus faecalis
M. pneumoniae = experiment: In vitro MIC, agar dilution; conditions: Mycoplasmoides pneumoniae; M. pneumoniae, 7 isolates; read-out: MIC Range
Klebsiella spp. = experiment: In vitro MIC, agar dilution
C. freundii = experiment: In vitro MIC, agar dilution; conditions: Citrobacter freundii
E. faecium (CiproR) = experiment: In vitro MIC, agar dilution; conditions: Enterococcus faecium; E. faecium (CiproR), 2 isolates; read-out: MIC Range
H. pylori = experiment: In vitro MIC, agar dilution; conditions: Helicobacter pylori
Enterococcus spp. (VanR) = experiment: In vitro MIC, agar dilution
S. pneumoniae (CiproR) = experiment: In vitro MIC, agar dilution; conditions: Streptococcus pneumoniae, read-out: MIC Range
Shigella spp. = experiment: microbe, parasite or virus in culture; conditions: read-out: MIC Range
S. epidermidis (CiproS) = experiment: In vitro MIC, agar dilution; conditions: Staphylococcus epidermidis
S. epidermidis (CiproR) = experiment: In vitro MIC, agar dilution; conditions: Staphylococcus epidermidis
S. aureus (CiproS) = experiment: In vitro MIC, agar dilution; conditions: Staphylococcus aureus
S. pyogenes = experiment: In vitro MIC, agar dilution; conditions: Streptococcus pyogenes
P. aeruginosa (CiproR) = experiment: In vitro MIC, agar dilution; conditions: Pseudomonas aeruginosa, P. aeruginosa (CiproR), 20 isolates
C. difficile = experiment: In vitro MIC, agar dilution; conditions: Clostridioides difficile
S. pneumoniae (PenR) = experiment: In vitro MIC, agar dilution; conditions: Streptococcus pneumoniae

Structure (SMILES): Cc1c(N2C[C@@H](N)C3(CC3)C2)c(F)cn2c(=O)c(C(=O)O)cc(C3CC3)c12 [Example 5, 1-cyclopropyl-8-(7(S)-amino-5-azaspiror2.41heptvl)-7-fluoro-9-methyl4-oxo-4H-quinolizine-3-carboxylic acid hydrochloride]
- MIC90 (M. catarrhalis): 0.03 µg/mL
- MIC50 (M. catarrhalis; M. catarrhalis, 18 isolates, read-out: MIC50): 0.015 µg/mL
- MIC (M. catarrhalis; M. catarrhalis, 18 isolates, read-out: MIC Range): 0.015 to 0.03 µg/mL
- MIC50 (C. perfringens): 0.06 µg/mL
- MIC90 (C. perfringens; C. perfringens, 13 isolates): 0.12 µg/mL
- MIC (C. perfringens; read-out: MIC Range): 0.06 to 0.12 µg/mL
- MIC (M. avium; read-out: MIC Range): 0.25 to 4 µg/mL
- MIC50 (M. avium; M. avium, 20 isolates, read-out: MIC50): 1 µg/mL
- MIC90 (M. avium; M. avium, 20 isolates, read-out: MIC90): 2 µg/mL
- MIC90 (S. pneumoniae (PenS)): 0.06 µg/mL
- MIC50 (S. pneumoniae (PenS); S. pneumoniae (PenS), 20 isolates, read-out: MIC50): 0.06 µg/mL
- MIC (S. pneumoniae (PenS); S. pneumoniae (PenS), 20 isolates, read-out: MIC Range): 0.03 to 0.06 µg/mL
- MIC50 (H. influenzae; read-out: MIC50): 0.002 µg/mL
- MIC90 (H. influenzae; read-out: MIC90): 0.008 µg/mL
- MIC (H. influenzae; read-out: MIC Range): 0.001 to 0.008 µg/mL
- MIC50 (Legionella spp.): 0.25 µg/mL
- MIC90 (Legionella spp.): 0.25 µg/mL
- MIC (Legionella spp.; read-out: MIC Range): 0.12 to 0.25 µg/mL
- MIC50 (B. fragilis): 0.03 µg/mL
- MIC90 (B. fragilis): 0.03 µg/mL
- MIC (B. fragilis; B. fragilis, 18 isolates, read-out: MIC Range): 0.015 to 0.06 µg/mL
- MIC90 (Providencia spp.; Providencia): 0.06 µg/mL
- MIC50 (Providencia spp.; Providencia spp., 28 isolates, read-out: MIC50): 0.015 µg/mL
- MIC (Providencia spp.; Providencia spp., 28 isolates, read-out: MIC Range): 0.008 to 0.25 µg/mL
- MIC90 (E. faecium (CiproS)): 0.5 µg/mL
- MIC (E. faecium (CiproS); read-out: MIC Range): 0.25 to 0.5 µg/mL
- MIC50 (E. faecium (CiproS); E. faecium (CiproS), 16 isolates, read-out: MIC50): 0.5 µg/mL
- MIC50 (P. mirabilis): 0.03 µg/mL
- MIC90 (P. mirabilis): 0.06 µg/mL
- MIC (P. mirabilis; read-out: MIC Range): 0.015 to 0.12 µg/mL
- MIC (Salmonella spp.): 0.004 to 0.12 µg/mL
- MIC50 (Salmonella spp.; read-out: MIC50): 0.015 µg/mL
- MIC90 (Salmonella spp.; read-out: MIC90): 0.03 µg/mL
- MIC (E. coli): 0.004 to 0.015 µg/mL
- MIC50 (E. coli; read-out: MIC50): ≤ 0.004 µg/mL
- MIC90 (E. coli; read-out: MIC90): 0.015 µg/mL
- MIC90 (E. faecium (VanS)): 0.25 µg/mL
- MIC (E. faecium (VanS); read-out: MIC Range): 0.06 to 0.5 µg/mL
- MIC50 (E. faecium (VanS); E. faecium (VanS), 11 isolates, read-out: MIC50): 0.25 µg/mL
- MIC90 (S. aureus (CiproR)): 0.25 µg/mL
- MIC50 (S. aureus (CiproR); S. aureus (CiproR), 25 isolates, read-out: MIC50): 0.12 µg/mL
- MIC (S. aureus (CiproR); S. aureus (CiproR), 25 isolates, read-out: MIC Range): 0.03 to 0.5 µg/mL
- MIC90 (E. faecalis (VanS)): 0.25 µg/mL
- MIC (E. faecalis (VanS); read-out: MIC Range): 0.06 to 0.25 µg/mL
- MIC50 (E. faecalis (VanS); E. faecalis (VanS), 17 isolates, read-out: MIC50): 0.12 µg/mL
- MIC (M. pneumoniae): 0.015 to 0.03 µg/mL
- MIC50 (Klebsiella spp.; Klebsiella): 0.03 µg/mL
- MIC90 (Klebsiella spp.; Klebsiella): 0.06 µg/mL
- MIC (Klebsiella spp.; Klebsiella spp., 29 isolates, read-out: MIC Range): 0.002 to 0.12 µg/mL
- MIC90 (C. freundii): 0.12 µg/mL
- MIC50 (C. freundii; C. freundii, 20 isolates, read-out: MIC50): 0.015 µg/mL
- MIC (C. freundii; C. freundii, 20 isolates, read-out: MIC Range): 0.008 to 0.12 µg/mL
- MIC (E. faecium (CiproR)): 0.5 to 4 µg/mL
- MIC50 (H. pylori): 0.03 µg/mL
- MIC90 (H. pylori): 0.06 µg/mL
- MIC (H. pylori; H. pylori, 17 isolates, read-out: MIC Range): 0.015 to 0.06 µg/mL
- MIC90 (Enterococcus spp. (VanR); Enterococcus): 0.5 µg/mL
- MIC50 (Enterococcus spp. (VanR); Enterococcus spp. (VanR), 21 isolates, read-out: MIC50): 0.5 µg/mL
- MIC (Enterococcus spp. (VanR); Enterococcus, read-out: MIC Range): 0.25 to 4 µg/mL
- MIC (S. pneumoniae (CiproR)): 0.06 to 0.12 µg/mL
- MIC (Shigella spp.): 0.001 to 0.008 µg/mL
- MIC90 (S. epidermidis (CiproS)): 0.03 µg/mL
- MIC50 (S. epidermidis (CiproS); S. epidermidis (CiproS), 23 isolates, read-out: MIC50): 0.015 µg/mL
- MIC (S. epidermidis (CiproS); S. epidermidis (CiproS), 23 isolates, read-out: MIC Range): 0.004 to 0.03 µg/mL
- MIC90 (S. epidermidis (CiproR)): 0.25 µg/mL
- MIC (S. epidermidis (CiproR); read-out: MIC Range): 0.12 to 1 µg/mL
- MIC50 (S. epidermidis (CiproR); S. epidermidis (CiproR), 11 isolates, read-out: MIC50): 0.25 µg/mL
- MIC90 (S. aureus (CiproS)): 0.015 µg/mL
- MIC50 (S. aureus (CiproS); S. aureus (CiproS), 21 isolates, read-out: MIC50): 0.015 µg/mL
- MIC (S. aureus (CiproS); S. aureus (CiproS), 21 isolates, read-out: MIC Range): 0.008 to 0.03 µg/mL
- MIC50 (S. pyogenes): 0.03 µg/mL
- MIC90 (S. pyogenes): 0.03 µg/mL
- MIC (S. pyogenes; S. pyogenes, 21 isolates, read-out: MIC Range): 0.015 to 0.06 µg/mL
- MIC50 (P. aeruginosa (CiproR); read-out: MIC50): 8 µg/mL
- MIC90 (P. aeruginosa (CiproR); read-out: MIC90): 16 µg/mL
- MIC (P. aeruginosa (CiproR); read-out: MIC Range): 4 to 16 µg/mL
- MIC90 (C. difficile): 0.25 µg/mL
- MIC (C. difficile; read-out: MIC Range): 0.12 to 0.25 µg/mL
- MIC50 (C. difficile; C. difficile, 10 isolates, read-out: MIC50): 0.25 µg/mL
- MIC90 (S. pneumoniae (PenR)): 0.06 µg/mL
- MIC50 (S. pneumoniae (PenR); S. pneumoniae (PenR), 25 isolates, read-out: MIC50): 0.06 µg/mL
- MIC (S. pneumoniae (PenR); S. pneumoniae (PenR), 25 isolates, read-out: MIC Range): 0.03 to 0.06 µg/mL

— patent publication US5977133A, “Pyridone antibiotic with improved safety profile” (priority 1998, dated 1999)
